Test results as given in ChEMBL document CHEMBL4725321, “Study on antitumor activities of the chrysin-chromene-spirooxindole on Lewis lung carcinoma C57BL/6 mice in vivo” (Bioorg Med Chem Lett, 2020).
Activity calls are given as the source filed them. The calls are words filed in the database; no cut-off is given here.

How the values were obtained:
[1] = Toxicity in C57BL/6 mouse assessed as effect on body weight at 100 to 400 mg/kg, ip measured on day 3; assay type: organism-based; conditions: in vivo, 72 h, dose 100-400 mg/kg, time 3 day
[2] = system: Lewis lung carcinoma; test: Antitumor activity against mouse LLC allografted in ip dosed C57BL/6 mouse assessed as reduction in bcl2 expression administered once every other day by Western blot analysis; assay type: functional, organism-based; conditions: dose mg/kg 100-400
[3] = system: Lewis lung carcinoma; test: Antitumor activity against mouse LLC allografted in ip dosed C57BL/6 mouse assessed as increase in bax expression administered once every other day by Western blot analysis; assay type: functional, organism-based; conditions: dose mg/kg 100-400
[4] = system: Lewis lung carcinoma; test: Antitumor activity against mouse LLC allografted in C57BL/6 mouse assessed as effect on Cyt C protein expression in tumor at 100 to 200 mg/kg, ip administered once every other day by Western blot analysis; assay type: functional, organism-based; conditions: dose mg/kg 100-200
[5] = Antitumor activity against mouse LLC allografted in C57BL/6 mouse assessed as tumor weight at 400 mg/kg, ip administered once every other day (reference value: 2.74 +/- 0.29 g); assay type: functional, Lewis lung carcinoma
[6] = system: Lewis lung carcinoma; test: Antitumor activity against mouse LLC allografted in ip dosed C57BL/6 mouse assessed as reduction in tumor volume measured after 7 days; assay type: functional, organism-based; conditions: dose mg/kg 100-400, time 7.0 day
[7] = system: Mus musculus; test: Down regulation of MMP2 protein expression in mouse LLC allografted C57BL/6 mouse at 200 mg/kg, ip by Western blot analysis; assay type: functional, organism-based
[8] = Antitumor activity against mouse LLC allografted in C57BL/6 mouse assessed as bax/bcl2 ratio at 400 mg/kg, ip administered once every other day by Western blot analysis; assay type: functional, Lewis lung carcinoma
[9] = system: Mus musculus; test: Down regulation of VEGF protein expression in mouse LLC allografted C57BL/6 mouse at 100 mg/kg, ip by Western blot analysis; assay type: functional, organism-based
[10] = Antitumor activity against mouse LLC allografted in C57BL/6 mouse assessed as tumor growth inhibition at 100 mg/kg, ip administered once every other day relative to control; assay type: functional; conditions: Lewis lung carcinoma, read-out: TGI
[11] = system: Mus musculus; test: Down regulation of VEGF protein expression in mouse LLC allografted C57BL/6 mouse at 200 to 400 mg/kg, ip by Western blot analysis; assay type: functional, organism-based; conditions: dose mg/kg 200-400
[12] = system: Lewis lung carcinoma; test: Antitumor activity against mouse LLC allografted in ip dosed C57BL/6 mouse assessed as induction of apoptosis by measuring increase in apoptotic bodies in tumor administered every other day by H and E staining based analysis; assay type: functional, organism-based; conditions: dose mg/kg 100-400
[13] = system: Mus musculus; test: Down regulation of ICAM1 protein expression in mouse LLC allografted C57BL/6 mouse at 100 mg/kg, ip by Western blot analysis; assay type: functional, organism-based
[14] = system: Lewis lung carcinoma; test: Antitumor activity against mouse LLC allografted in C57BL/6 mouse assessed as reduction in tumor weight at 400 mg/kg, ip administered once every other day; assay type: functional, organism-based
[15] = system: Lewis lung carcinoma; test: Antitumor activity against mouse LLC allografted in C57BL/6 mouse assessed as inhibition of tumor growth at 400 mg/kg, ip measured after 7 days; assay type: functional, organism-based; conditions: time 7.0 day
[16] = biological target: E3 ubiquitin-protein ligase Mdm2 (Mus musculus) (UniProt P23804); test: In vivo activation of p53 in mouse LLC allografted C57BL/6 mouse assessed as reduction in MDM2 protein expression in tumor at 100 to 400 mg/kg, ip administered once every other day by Western blot analysis; assay type: functional, organism-based; conditions: dose mg/kg 100-400
Sequence of E3 ubiquitin-protein ligase Mdm2 (Mus musculus) (P23804 whole entry): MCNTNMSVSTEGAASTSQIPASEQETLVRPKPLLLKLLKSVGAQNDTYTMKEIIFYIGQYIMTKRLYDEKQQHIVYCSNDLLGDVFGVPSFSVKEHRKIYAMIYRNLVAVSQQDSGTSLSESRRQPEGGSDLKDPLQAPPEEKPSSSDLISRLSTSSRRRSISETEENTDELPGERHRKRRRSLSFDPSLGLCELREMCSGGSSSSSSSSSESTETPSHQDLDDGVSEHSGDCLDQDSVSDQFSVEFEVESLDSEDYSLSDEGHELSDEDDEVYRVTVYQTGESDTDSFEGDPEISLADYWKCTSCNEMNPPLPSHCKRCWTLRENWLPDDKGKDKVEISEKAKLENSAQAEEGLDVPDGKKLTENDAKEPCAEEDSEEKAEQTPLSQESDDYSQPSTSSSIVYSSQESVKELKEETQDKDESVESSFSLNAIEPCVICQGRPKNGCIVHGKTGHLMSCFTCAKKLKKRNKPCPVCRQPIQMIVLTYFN

[17] = Antitumor activity against mouse LLC allografted in C57BL/6 mouse assessed as tumor growth inhibition at 200 mg/kg, ip administered once every other day relative to control; assay type: functional; conditions: Lewis lung carcinoma, read-out: TGI
[18] = Toxicity in C57BL/6 mouse assessed as increase in body weight at 100 to 200 mg/kg, ip measured up to 15 days; assay type: organism-based; conditions: in vivo, 360 h, dose 100-200 mg/kg, time <=15 day
[19] = In vivo activation of p53 in mouse LLC allografted C57BL/6 mouse assessed as reduction in Akt protein expression in tumor at 200 mg/kg, ip administered once every other day by Western blot analysis relative to control; assay type: functional
[20] = In vivo activation of p53 in mouse LLC allografted C57BL/6 mouse assessed as reduction in 5-lox protein expression in tumor at 400 mg/kg, ip administered once every other day by Western blot analysis relative to control; assay type: functional
[21] = Antitumor activity against mouse LLC allografted in C57BL/6 mouse assessed as tumor weight at 200 mg/kg, ip administered once every other day (reference value: 2.74 +/- 0.29 g); assay type: functional, Lewis lung carcinoma
[22] = Antitumor activity against mouse LLC allografted in C57BL/6 mouse assessed as tumor weight at 100 mg/kg, ip administered once every other day (reference value: 2.74 +/- 0.29 g); assay type: functional, Lewis lung carcinoma
[23] = Upregulation of p53 protein expression in […] LLC allografted C57BL/6 mouse at 400 mg/kg, ip administered once every other day by Western blot analysis relative to control; assay type: functional
[24] = Antitumor activity against mouse LLC allografted in C57BL/6 mouse assessed as bax/bcl2 ratio at 100 mg/kg, ip administered once every other day by Western blot analysis; assay type: functional, Lewis lung carcinoma
[25] = system: Lewis lung carcinoma; test: Antitumor activity against mouse LLC allografted in ip dosed C57BL/6 mouse assessed as induction of apoptosis by measuring nuclear contraction administered every other day by H and E staining based analysis; assay type: functional, organism-based; conditions: dose mg/kg 100-400
[26] = system: Lewis lung carcinoma; test: Antitumor activity against mouse LLC allografted in ip dosed C57BL/6 mouse assessed as induction of apoptosis by measuring reduction in number of tumor cells administered every other day by H and E staining based analysis; assay type: functional, organism-based; conditions: dose mg/kg 100-400
[27] = system: Lewis lung carcinoma; test: Antitumor activity against mouse LLC allografted in C57BL/6 mouse assessed as Cyt C protein expression level in tumor at 400 mg/kg, ip administered once every other day by Western blot analysis relative to control; assay type: functional, organism-based
[28] = Toxicity in C57BL/6 mouse assessed as increase in body weight at 400 mg/kg, ip measured up to 15 days; assay type: organism-based; conditions: in vivo, 360 h, time <=15 day
[29] = Antitumor activity against mouse LLC allografted in C57BL/6 mouse assessed as tumor growth inhibition at 400 mg/kg, ip administered once every other day relative to control; assay type: functional; conditions: Lewis lung carcinoma, read-out: TGI
[30] = system: Lewis lung carcinoma; test: Antitumor activity against mouse LLC allografted in ip dosed C57BL/6 mouse assessed as induction of apoptosis by measuring increase in cell debris content in tumor administered every other day by H and E staining based analysis; assay type: functional, organism-based; conditions: dose mg/kg 100-400
[31] = system: Lewis lung carcinoma; test: Antitumor activity against mouse LLC allografted in ip dosed C57BL/6 mouse assessed as reduction in tumor growth administered once every other day; assay type: functional, organism-based; conditions: dose mg/kg 100-400
[32] = Antitumor activity against mouse LLC allografted in C57BL/6 mouse assessed as bax/bcl2 ratio at 200 mg/kg, ip administered once every other day by Western blot analysis; assay type: functional, Lewis lung carcinoma

For `CN1C(=O)C2(C(C#N)=C(N)Oc3cc4oc(-c5ccccc5)cc(=O)c4c(O)c32)c2cc(Br)ccc21` (configuration not stated), the Activity [1] was “Non-Toxic”, the Activity [2] was “Dose-dependent effect” and the Activity [3] was “Dose-dependent effect”. For the same compound, the Activity [4] was “inactive”, the Activity [5] was 1.18 g and the Activity [6] was “Dose-dependent effect”. For the same compound, the Activity [7] was “Active”, the Ratio [8] was 4.13 and the Activity [9] was “inactive”. For the same compound, the inhibition in vivo at 100 mg/kg [10] was 7.45%, the Activity [11] was “Active” and the Activity [12] was “Dose-dependent effect”. The Activity [13] was “Active”, the Activity [14] was “Active” and the TGI [15] was “Active”. For the same compound, the Activity [16] was “Active”, the inhibition in vivo at 200 mg/kg [17] was 20% and the Activity [18] was “Toxic”. The “fold change (FC)” value [19] was 0.59, the “fold change (FC)” value [20] was 0.4 and the Activity [21] was 2.15 g. The Activity [22] was 2.51 g, the “fold change (FC)” value [23] was 2.86 and the Ratio [24] was 1.29. For the same compound, the Activity [25] was “Dose-dependent effect”, the Activity [26] was “Dose-dependent effect” and the Activity [27] was “Active”. The Activity [28] was “Non-Toxic”, the inhibition in vivo at 400 mg/kg [29] was 56.9% and the Activity [30] was “Dose-dependent effect”. For the same compound, the Activity [31] was “Dose-dependent effect” and the Ratio [32] was 2.23.
